Experimental data: patent US10308645B2, “Piperidine oxadiazole and thiadiazole orexin receptor antagonists” (MERCK SHARP & DOHME CORP., priority 2014, dated 2019)

How the values were obtained:
[1] = molecular target: hOX1R (orexin-1 receptor) (Homo sapiens, UniProt O43613); assay: FLIPR Ca2+ Flux Assay, hOX1R; format: cell-based; conditions: CHO cells expressing the receptor; agonist Ala-6,12 human orexin-A
human orexin-2 receptor = human orexin-2 receptor (Homo sapiens (Human), UniProt O43614); assay: FLIPR Ca2+ Flux Assay, hOX2R; format: cell-based; conditions: CHO cells expressing the receptor; agonist Ala-6,12 human orexin-A
Sequence of human orexin-2 receptor (O43614 whole entry): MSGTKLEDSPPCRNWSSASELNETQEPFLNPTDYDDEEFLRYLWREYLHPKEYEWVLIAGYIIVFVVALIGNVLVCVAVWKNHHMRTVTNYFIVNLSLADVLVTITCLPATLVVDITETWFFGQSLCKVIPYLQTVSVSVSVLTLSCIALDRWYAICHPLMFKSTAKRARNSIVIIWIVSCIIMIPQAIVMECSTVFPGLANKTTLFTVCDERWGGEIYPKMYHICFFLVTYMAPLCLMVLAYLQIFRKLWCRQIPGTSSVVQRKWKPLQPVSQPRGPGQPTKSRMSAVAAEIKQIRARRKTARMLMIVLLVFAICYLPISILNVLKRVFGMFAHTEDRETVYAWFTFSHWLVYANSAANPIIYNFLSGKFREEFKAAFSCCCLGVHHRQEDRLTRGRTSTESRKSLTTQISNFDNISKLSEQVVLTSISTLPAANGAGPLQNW
Method: The utility of the compounds in accordance with the present invention as orexin receptor OX1R and/or OX2R antagonists may be readily determined without undue experimentation by methodology well known in the art, including the “FLIPR Ca^2+ Flux Assay” (Okumura et al., Biochem. Biophys. Res. Comm. 280:976-981, 2001). In a typical experiment the OX1 and OX2 receptor antagonistic activity of the compounds of the present invention was determined in accordance with the following experimental method. For intracellular calcium measurements, Chinese hamster ovary (CHO) cells expressing the rat orexin-1 receptor or the human orexin-2 receptor, are grown in Iscove's modified DMEM containing 2 mM L-glutamine, […], 1% hypoxanthine-thymidine supplement, 100 U/ml penicillin, 100 μg/ml streptomycin and 10% heat-inactivated fetal calf serum (FCS). The cells are seeded at 20,000 cells/well into Becton-Dickinson black 384-well clear bottom sterile plates coated with poly-D-lysine. All reagents were from GIBCO-Invitrogen Corp. The seeded plates are incubated overnight at 37° C. and 5% CO2. Ala-6,12 human orexin-A as the agonist is prepared as a 1 mM stock solution in 1% bovine serum albumin (BSA) and diluted in assay buffer (HBSS containing 20 mM HEPES, 0.1% BSA and 2.5 mM probenecid, pH7.4) for use in the assay at a final concentration of 70 pM. Test compounds are prepared as 10 mM stock solution in DMSO, then diluted in 384-well plates, first in DMSO, then assay buffer. On the day of the assay, cells are washed 3 times with 100 μl assay buffer and then incubated for 60 min (37° C., 5% CO2) in 60 μl assay buffer containing 1 μM Fluo-4AM ester, 0.02% pluronic acid, and 1% BSA. The dye loading solution is then aspirated and cells are washed 3 times with 100 μl assay buffer. 30 μl of that same buffer is left in each well. Within the Fluorescent Imaging Plate Reader (FLIPR, Molecular Devices), test compounds are added to the plate in a volume of 25 μl, incubated for 5 min and finally 25 μl of agonist is added. Fluorescence is measured for each well at 1 second intervals for 5 minutes and the height of each fluorescence peak is compared to the height of the fluorescence peak induced by […] Ala-6,12 orexin-A with buffer in place of antagonist. For each antagonist, IC50 value (the concentration of compound needed to inhibit 50% of the agonist response) is determined. Alternatively, compound potency can be assessed by a radioligand binding assay (described in Bergman et. al. Bioorg. Med. Chem. Lett. 2008, 18, 1425-1430) in which the inhibition constant (Ki) is determined in membranes prepared from CHO cells expressing either the OX1 or OX2 receptor. The intrinsic orexin receptor antagonist activity of a compound which may be used in the present invention may be determined by these assays.

| Structure (SMILES) | IC50 [1] [nM] | IC50 (human orexin-2 receptor) [nM] |
| --- | --- | --- |
| C[C@@H]1CC[C@@H](c2noc(C3CC3)n2)CN1C(=O)c1ccccc1-n1nccn1 [Example 1, (2R,5R)-5-(5-Cyclopropyl-1,2,4-oxadiazol-3-yl)-2-methyl-1-{[2-(2H-1,2,3-triazol-2-yl)phenyl]carbonyl}piperidine] | > 10000 | 329 |
| C[C@@H]1CC[C@@H](c2noc(C(C)(C)C)n2)CN1C(=O)c1ccccc1-n1nccn1 [Example 2, (2R,5R)-5-(5-tert-butyl-1,2,4-oxadiazol-3-yl)-2-methyl-1-{[2-(2H-1,2,3-triazol-2-yl)phenyl]carbonyl}piperidine] | 516 | 29 |
| CCc1nc([C@@H]2CC[C@@H](C)N(C(=O)c3ccccc3-n3nccn3)C2)no1 [Example 3, (2R,5R)-5-(5-ethyl-1,2,4-oxadiazol-3-yl)-2-methyl-1-{[2-(2H-1,2,3-triazol-2-yl)phenyl]carbonyl}piperidine] | > 10000 | 315 |
| CC(C)c1nc([C@@H]2CC[C@@H](C)N(C(=O)c3ccccc3-n3nccn3)C2)no1 [Example 4, (2R,5R)-2-methyl-5-[5-(1-methylethyl)-1,2,4-oxadiazol-3-yl]-1-{[2-(2H-1,2,3-triazol-2-yl)phenyl]carbonyl}piperidine] | 699 | 28 |
| C[C@@H]1CC[C@@H](c2noc(C(C)(C)O)n2)CN1C(=O)c1ccccc1-n1nccn1 [Example 5, 2-{3-[(3R,6R)-6-Methyl-1-{[2-(2H-1,2,3-triazol-2-yl)phenyl]carbonyl}piperidin-3-yl]-1,2,4-oxadiazol-5-yl}propan-2-ol] | 3180 | 19 |
| C[C@@H]1CC[C@@H](c2noc([C@](C)(O)C(F)(F)F)n2)CN1C(=O)c1ccccc1-n1nccn1 [Example 6, (2S)-1,1,1-trifluoro-2-{3-[(3R,6R)-6-methyl-1-{[2-(2H-1,2,3-triazol-2-yl)phenyl]carbonyl}piperidin-3-yl]-1,2,4-oxadiazol-5-yl}propan-2-ol] | 288 | 18 |
| C[C@@H]1CC[C@@H](c2noc([C@H](O)C(F)(F)F)n2)CN1C(=O)c1ccccc1-n1nccn1 [Example 7, (1S)-2,2,2-trifluoro-1-{3-[(3R,6R)-6-methyl-1-{[2-(2H-1,2,3-triazol-2-yl)phenyl]carbonyl}piperidin-3-yl]-1,2,4-oxadiazol-5-yl}ethanol] | 456 | 22 |
| COC(C)(C)c1nc([C@@H]2CC[C@@H](C)N(C(=O)c3ccccc3-n3nccn3)C2)no1 [Example 8, (2R,5R)-5-[5-(1-Methoxy-1-methylethyl)-1,2,4-oxadiazol-3-yl]-2-methyl-1-{[2-(2H-1,2,3-triazol-2-yl)phenyl]carbonyl}piperidine] | 3700 | 98 |
| C[C@@H]1CC[C@@H](c2noc([C@@H](O)C(F)(F)F)n2)CN1C(=O)c1ccccc1-n1nccn1 [Example 9, (1R)-2,2,2-Trifluoro-1-{3-[(3R,6R)-6-methyl-1-{[2-(2H-1,2,3-triazol-2-yl)phenyl]carbonyl}piperidin-3-yl]-1,2,4-oxadiazol-5-yl}ethanol] | 1010 | 77 |
| C[C@@H]1CC[C@@H](c2noc([C@@](C)(O)C(F)(F)F)n2)CN1C(=O)c1ccccc1-n1nccn1 [Example 10, (2R)-1,1,1-Trifluoro-2-{3-[(3R,6R)-6-methyl-1-{[2-(2H-1,2,3-triazol-2-yl)phenyl]carbonyl}piperidin-3-yl]-1,2,4-oxadiazol-5-yl}propan-2-ol] | 2240 | 97 |
| C[C@@H]1CC[C@@H](c2noc(C(C)(C)O)n2)CN1C(=O)c1ccccc1C1(C#N)CC1 [Example 11, 1-[2-({(2R,5R)-5-[5-(1-hydroxy-1-methylethyl)-1,2,4-oxadiazol-3-yl]-2-methylpiperidin-1-yl}carbonyl)phenyl]cyclopropanecarbonitrile] | 2290 | 22 |
| C[C@@H]1CC[C@@H](c2noc(C(C)(C)O)n2)CN1C(=O)c1ccccc1-n1ncnn1 [Example 12, 2-{3-[(3R,6R)-6-methyl-1-{[2-(2H-tetrazol-2-yl)phenyl]carbonyl}piperidin-3-yl]-1,2,4-oxadiazol-5-yl}propan-2-ol] | > 10000 | 184 |
| C[C@@H]1CC[C@@H](c2noc(C(C)(C)O)n2)CN1C(=O)c1ccsc1-n1nccn1 [Example 13, 2-{3-[(3R,6R)-6-methyl-1-{[2-(2H-1,2,3-triazol-2-yl)thiophen-3-yl]carbonyl}piperidin-3-yl]-1,2,4-oxadiazol-5-yl}propan-2-ol] | > 10000 | 39 |
| C[C@@H]1CC[C@@H](c2noc(C(C)(C)O)n2)CN1C(=O)c1cscc1-n1nccn1 [Example 14, 2-{3-[(3R,6R)-6-methyl-1-{[4-(2H-1,2,3-triazol-2-yl)thiophen-3-yl]carbonyl}piperidin-3-yl]-1,2,4-oxadiazol-5-yl}propan-2-ol] | > 10000 | 48 |
| C[C@@H]1CC[C@@H](c2noc(C(C)(C)O)n2)CN1C(=O)c1ccccc1OC(F)(F)F [Example 15, 2-{3-[(3R,6R)-6-methyl-1-{[2-(trifluoromethoxy)phenyl]carbonyl}piperidin-3-yl]-1,2,4-oxadiazol-5-yl}propan-2-ol] | > 10000 | 86 |
| C[C@@H]1CC[C@@H](c2noc(C(C)(C)O)n2)CN1C(=O)c1cccnc1OCC(F)(F)F [Example 16, 2-{3-[(3R,6R)-6-methyl-1-{[2-(2,2,2-trifluoroethoxy)pyridin-3-yl]carbonyl}piperidin-3-yl]-1,2,4-oxadiazol-5-yl}propan-2-ol] | > 10000 | 87 |
| CC(C)Oc1ncccc1C(=O)N1C[C@H](c2noc(C(C)(C)O)n2)CC[C@H]1C [Example 17, 2-{3-[(3R,6R)-6-methyl-1-{[2-(1-methylethoxy)pyridin-3-yl]carbonyl}piperidin-3-yl]-1,2,4-oxadiazol-5-yl}propan-2-ol] | > 10000 | 219 |
| C[C@@H]1CC[C@@H](c2noc(C(C)(C)O)n2)CN1C(=O)c1ccccc1OC(F)F [Example 18, 2-{3-[(3R,6R)-1-{[2-(difluoromethoxy)phenyl]carbonyl}-6-methylpiperidin-3-yl]-1,2,4-oxadiazol-5-yl}propan-2-ol] | > 10000 | 140 |
| CCOc1ccccc1C(=O)N1C[C@H](c2noc(C(C)(C)O)n2)CC[C@H]1C [Example 19, 2-(3-{(3R,6R)-1-[(2-ethoxyphenyl)carbonyl]-6-methylpiperidin-3-yl}-1,2,4-oxadiazol-5-yl)propan-2-ol] | > 10000 | 124 |
| COC(=O)c1ccccc1C(=O)N1C[C@H](c2noc(C(C)(C)O)n2)CC[C@H]1C [Example 20, methyl 2-({(2R,5R)-5-[5-(1-hydroxy-1-methylethyl)-1,2,4-oxadiazol-3-yl]-2-methylpiperidin-1-yl}carbonyl)benzoate] | > 10000 | 97 |
| C[C@@H]1CC[C@@H](c2noc(C(C)(C)O)n2)CN1C(=O)c1ccc(F)cc1-n1nccn1 [Example 21, 2-{3-[(3R,6R)-1-{[4-Fluoro-2-(2H-1,2,3-triazol-2-yl)phenyl]carbonyl}-6-methylpiperidin-3-yl]-1,2,4-oxadiazol-5-yl}propan-2-ol] | > 10000 | 44 |
| C[C@@H]1CC[C@@H](c2noc(C(C)(C)O)n2)CN1C(=O)c1ccsc1-c1ncccn1 [Example 22, 2-(3-{(3R,6R)-6-methyl-1-[(2-pyrimidin-2-ylthiophen-3-yl)carbonyl]piperidin-3-yl}-1,2,4-oxadiazol-5-yl)propan-2-ol] | > 10000 | 61 |
| C[C@@H]1CC[C@@H](c2noc(C(C)(C)O)n2)CN1C(=O)c1ccccc1-c1ncccn1 [Example 23, 2-(3-{(3R,6R)-6-Methyl-1-[(2-pyrimidin-2-ylphenyl)carbonyl]piperidin-3-yl}-1,2,4-oxadiazol-5-yl)propan-2-ol] | > 10000 | 63 |
| C[C@@H]1CC[C@@H](c2nsc(C(C)(C)O)n2)CN1C(=O)c1cccnc1OCC(F)(F)F [Example 38, 2-{3-[(3R,6R)-6-methyl-1-{[2-(2,2,2-trifluoroethoxy)pyridin-3-yl]carbonyl}piperidin-3-yl]-1,2,4-thiadiazol-5-yl}propan-2-ol] | – | 124 |
